The subject of assay [1] is TAA-induced model hepatic fibrosis in mice. In words: Treatment of TAA-induced model hepatic fibrosis in mice by oral (intragastric) administration; hydroxyproline test and alanine aminotransferase test. In kind it is in vivo, ICR mice. The settings on record: hepatic tissue, 20mg/kg intragastrically in corn oil, twice a week, 4 weeks, TAA 200mg/kg, mean value ± standard deviation; for hydroxyproline: TAA model group 356±43; for alanine aminotransferase: TAA model group 372±24. From the text:
(§1) The following example is to be regarded as a case to illustrate specific details of this invention. It should not be viewed as to limit the application scope of this invention. Application of Indole-3-carbinol, Diindolylmethane and Derivatives thereof Disclosed in This Invention in the Treatment of Modeled Hepatic Fibrosis: • 1. Injecting the phosphate buffer solution of thioacetamide (TTA) into the abdominal cavity of ICR mice so that TTA models of hepatic fibrosis can be established. • 2. Dissolving indole-3-carbinol, diindolylmethane and derivative thereof in corn oil and treating hepatic fibrosis through intragastric administration at the same time of the establishment of TTA models of hepatic fibrosis. • 3. Administering TAA, indole-3-carbinol, diindolylmethane and derivatives thereof twice a week for four weeks in succession; killing the mice and taking out the liver for hydroxyproline test and alanine aminotransferase (ALT) test. Application of Water Injection of Indole-3-carbinol, Diindolylmethane and Derivatives thereof Disclosed in This Invention in the Treatment of Modeled Hepatic Fibrosis: • 1. Injecting the phosphate buffer solution of thioacetamide (TTA) into the abdominal cavity of ICR mice so that TTA models of hepatic fibrosis can be established. • 2. Dissolving indole-3-carbinol, diindolylmethane and derivative thereof in water and treating hepatic fibrosis through intraperitoneal administration at the same time of the establishment of TTA models of hepatic fibrosis. • 3. Administering TAA, indole-3-carbinol, diindolylmethane and derivatives thereof twice a week for four weeks in succession; killing the mice and taking out the liver for hydroxyproline test and alanine aminotransferase (ALT) test. Dissolving I3C, DIM and methoxyl-DIM in corn oil so that 2.0mg/ml stock solution can be obtained for later use; establishing TAA models of hepatic fibrosis in mice with the method commonly adopted in the related literature, namely, picking 40 mice weighing 16-18g and randomly dividing them into four groups: TAA model group, I3C treatment group, DIM treatment group and 5-methoxyl-DIM treatment group; injecting TAA phosphate buffer solution (200mg/kg) into the abdominal cavity of the mice, twice a week; starting the treatment at the same time of the model establishment: administering the correlated drugs intragastrically at the rate of 20mg/kg to the mice in I3C treatment group, DIM treatment group and 5-methoxyl-DIM treatment group, twice a week; in contrast, the mice in the TAA model group are given only corn oil at the same dosage and frequency. Killing all mice of the four groups 4 weeks later and taking out the pathologically changed hepatic tissue for hydroxyproline test and alanine aminotransferase test. • (1) Hydroxyproline test Preparing the tissue homogenate of the pathologically changed liver and extracting the supernatant thereof; testing the concentration of hydroxyproline by means of alkaline hydrolysis. • (2) Results of alanine aminotransferase test Testing the serum of mice so that the concentration of alanine aminotransferase can be determined. When hepatic fibrosis is in process, what accumulate in liver are mainly collagen fibers. Since hydroxyproline is specific to collagen fibers, its concentration to some extent reflects the degree of hepatic fibrosis. As is shown in table 1, the oral administration of I3C, DIM and derivatives thereof can effectively relieve hepatic fibrosis as the concentration of hydroxyproline in the treatment groups is significant lower than that of the TAA model group. […]

Assay [2] has the same test system. In words: Treatment of TAA-induced model hepatic fibrosis in mice by intraperitoneal administration of water injection; hydroxyproline test and alanine aminotransferase test. The class given is in vivo, ICR mice. The settings on record: 20mg/kg intraperitoneally, water injection with cyclodextrin in physiological saline, twice a week, 4 weeks, mean value ± standard deviation; for alanine aminotransferase: TAA model group 392±31; for hydroxyproline: hepatic tissue, TAA model group 363±32.
Description: as §1, with “determined.” for “determined. When hepatic fibrosis is in process, what accumulate in liver are mainly collagen fibers. Since hydroxyproline is specific to collagen fibers, its concentration to some extent reflects the degree of hepatic fibrosis. As is shown in table 1, the oral administration of I3C, DIM and derivatives thereof can effectively relieve hepatic fibrosis as the concentration of hydroxyproline in the treatment groups is significant lower than that of the TAA model group.”

Experimental findings from EP2606887A1, “DIINDOLYLMETHANE, PRECURSOR AND DERIVATIVES THEREOF IN PREPARATION OF MEDICAMENTS FOR TREATING LIVER DISEASES” (Nanjing University, priority 2010, dated 2012) are described below.

For `COc1ccc2[nH]cc(Cc3c[nH]c4ccc(OC)cc34)c2c1` [5-methoxyl-DIM], the hydroxyproline in assay [1] was determined as 194±17 µg/g liver; in assay [2], 203±14 µg/g liver. Besides, the alanine aminotransferase in assay [1] amounted to 236±12 U/mgprot; in assay [2] it was 226±19 U/mgprot.
In the case of `c1ccc2c(Cc3c[nH]c4ccccc34)c[nH]c2c1` [DIM, 3,3'-Diindolylmethane], the hydroxyproline in assay [1] is on record as 176±21 µg/g liver; in assay [2], 195±24 µg/g liver. Also, the alanine aminotransferase in assay [1] worked out at 204±37 U/mgprot; in assay [2], 187±29 U/mgprot.
As for `OCc1c[nH]c2ccccc12` [I3 C, indole-3-carbinol], in assay [1], the hydroxyproline is listed as 237±11 µg/g liver and the alanine aminotransferase turned out to be 245±32 U/mgprot. In assay [2], this molecule registered an alanine aminotransferase of 239±21 U/mgprot and a hydroxyproline of 253±21 µg/g liver.
